According to PubChem BioAssay AID1963837 (Molecular Pharmacology Branch, DTP, NCI, 2024):
Several values for one entry are separate records, joined by “and”; a condition that tells them apart may be missing. Equal entries are not always repeated.

Test system: 843126-344-R-J1-PDC complex spheroid viability
Test: Anticancer human tumor 843126-344-R-J1-PDC patient-derived melanoma cell line growth inhibition [POLQ]
Settings: for viability, T/C: stronger effect = lower value
Experimental: Multicellular complex tumor spheroid response to Polymerase (POL) inhibitors (novobiocin, ART-558, RP6685) in combination with a variety of drugs and investigational agents in selected tumor cell lines
The POL inhibitors (novobiocin, ART-558, and RP6685) were evaluated both individually and in combination with standard of care and investigational anticancer small molecules within a complex spheroid model of solid tumors. . Complex spheroids include a stromal component modeled by human endothelial cells (HUVEC) and fibroblasts modeled by human mesenchymal stem cells (MSCs). The concentration ranges selected for each drug and investigational agent were based upon clinically achievable concentrations if the clinical Cmax of the agent was known.
Compounds. The drugs and investigational agents: novobiocin (NSC847541), ART-558 (NSC835418), RP-6685 (NSC848927), peposertib (NSC802822), ceralasertib (NSC780249), elimusertib (NSC800525), camonsertib (NSC841442), AZD-1390 (NSC803789), olaparib (NSC753686), talazoparib (NSC767125), rucaparib (NSC756644), sotorasib (NSC818433), MRTX-1133 (NSC836407), SN-38 (NSC673596), topotecan (NSC609699), epotoside (NSC141540), doxorubicin (NSC123127), gemcitabine (NSC613327), 5-fluorouracil (NSC19893), paclitaxel (NSC125973), vemurafenib (NSC761431), MSA-2 (NSC828583), SN-011 (NSC837082), adavosertib (NSC754352), prexasertib (NSC758257), carboplatin (NSC241240) and oxaliplatin (NSC266046), were obtained from the National Cancer Institute (NCI) Developmental Therapeutics Program Chemical Repository (21). The FDA-approved anticancer drug set is available from the Developmental Therapeutics Program at https://dtp.cancer.gov/organization/dscb/obtaining/. […] The stock solutions were prepared in dimethyl sulfoxide (DMSO, Sigma-Aldrich, St. Louis, MO, cat. D2650), except for the platinum compounds which were prepared in saline (Quality Biological, Gaithersburg, MD, cat. 114-055-101), at 800-fold the tested concentration and stored at -70 degrees C prior to their use. All drugs and investigational agents were tested over a range starting from a high concentration at or near the clinical Cmax and decreasing in half-log increments. If the clinical Cmax for an agent had not been determined, the highest concentration tested was 10 microM, except for SN-38, which was tested at a high concentration of 1 microM.
Cell Culture. All cells were maintained in an incubator at 37 degrees C and 5% CO2 with 95% humidity. The PDC lines were cultured according to standard operating procedures established by the NCI PDMR (https://pdmr.cancer.gov). Table 3 of the manuscript, lists the cell lines along with the number of the three cell types plated to form the mct-spheroids and media for tumor cell growth. After thawing, all PDC lines, except 997537-175-T-J1-PDC and 415267-285-R-J2-PDC, were cultured in Matrigel-coated flasks prepared with a working solution of 1X Ham's F-12 nutrient mix, without supplementation (Thermo Fisher Scientific, cat. 11765054), 100 U/mL penicillin-streptomycin (Thermo Fisher Scientific, cat. 15140122), and 2.5% Matrigel (Corning Inc., Corning, NY, cat. 354248) for the first three passages. The two PDC lines 997537-175-T-J1-PDC and 415267-285-R-J2-PDC were cultured on uncoated flasks. The 857933-349-R-J2-PDC line was cultured in 6C/Colon 1B media containing advanced DMEM/F-12 (Thermo Fisher Scientific, cat. 12634028), 10 mM HEPES (Thermo Fisher Scientific, cat. 15630080), 1X GlutaMAX supplement (Thermo Fisher Scientific, cat. 35050061), 0.1 mg/mL primocin (InvivoGen, San Diego, CA, cat. ant-pm-2), 10% defined fetal bovine serum, heat inactivated (HyClone Laboratories Inc., Logan, UT, cat. SH30070.03HI), 50% L-WRN conditioned media (ATCC, cat. CRL-3276), 1.25 mM N-Acetyl-L-cysteine (Sigma-Aldrich, cat. A9165), 10 mM nicotinamide (Sigma-Aldrich, cat. N0636), 1X B-27 supplement (Thermo Fisher Scientific, cat. 17504044), 1X N-2 supplement (Thermo Fisher Scientific, cat. […]

[1] = compound alone, run of 01/08/2024
[2] = compound alone, run of 01/19/2024
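Wherever viability, T/C is given: spheroids exposed to drugs for seven days before readout.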

Row | SMILES | viability, T/C (compound 0.0316 µM) | viability, T/C (compound 0.1 µM) | viability, T/C (compound 0.316 µM) | viability, T/C (compound 1 µM) | viability, T/C (compound 3.16 µM) | viability, T/C (compound 10 µM) | IC50 (curve of compound) | IC50 [1] [µM] | viability, T/C (compound 0.00316 µM) | viability, T/C (compound 0.01 µM) | IC50 [2] [µM] | viability, T/C (compound 0.000316 µM) | viability, T/C (compound 0.001 µM)
1 | CNCc1ccc(-c2[nH]c3cc(F)cc4c3c2CCNC4=O)cc1 | 99.4% and 100% and 94.8% | 77.4% and 81.4% and 75.4% | 87.7% and 100% and 97.9% | 76% and 91.1% and 107% | 76% and 108% and 89% | 73.8% and 87% and 79.3% | > 10 µM |  |  |  |  |  | 
2 | COC1C(OC(N)=O)C(O)C(Oc2ccc3c(O)c(NC(=O)c4ccc(O)c(CC=C(C)C)c4)c(=O)oc3c2C)OC1(C)C (stereo unspecified) |  |  |  | 92% [middle of 13 runs] |  |  |  | > 10 |  |  |  |  | 
3 | COc1cc(C2c3cc4c(cc3C(OC3OC5COC(C)OC5C(O)C3O)C3COC(=O)C23)OCO4)cc(OC)c1O (stereo unspecified) | 82.2% and 114% and 91.2% | 95.3% and 90.7% and 102% | 90% and 97.6% and 83.3% | 90.9% and 79% and 81.2% | 58.2% and 68.9% and 66.3% | 50% and 52.2% and 41.9% | > 10 µM and 6.8 µM |  |  |  |  |  | 
4 | COc1cc2cc(C(=O)CCC(=O)O)sc2cc1OC | 87.3% and 78.3% and 95.9% | 84.1% and 94.8% and 93.8% | 94.1% and 97.4% and 110% | 89.5% and 93.5% and 88.7% | 86.9% and 84.8% and 98.1% | 112% and 90.1% and 96.6% | > 10 µM |  |  |  |  |  | 
5 | COc1ccc([C@@H](O)c2cc(-c3ncnc4cc(N5CCOCC5)ccc34)c(F)cc2Cl)nn1 | 103% and 80.6% and 95.7% | 84.7% and 89.8% and 74.2% | 92.1% and 102% and 93.4% | 112% and 87.3% and 81.3% | 86.4% and 73.3% and 59.9% | 66.4% and 71.2% and 48.2% | > 10 µM and 8.43 µM |  |  |  |  |  | 
6 | COc1cccc(OCCCN)c1-c1cc(Nc2cnc(C#N)cn2)n[nH]1 | 59% and 60.4% and 62.1% | 49.5% and 47.9% and 49.9% | 47.6% and 47.8% and 44.3% | 35.3% and 32.9% and 35.2% |  |  | 0.109 µM and 0.0864 µM and 0.114 µM |  | 97.4% and 92.9% and 79.1% | 79.3% and 86.4% and 75.8% |  |  | 
7 | COc1cccc2c1C(=O)c1c(O)c3c(c(O)c1C2=O)CC(O)(C(=O)CO)CC3OC1CC(N)C(O)C(C)O1 (stereo unspecified) | 82.8% and 77.3% and 86.3% | 70.2% and 71% and 79.7% | 44.3% and 47.8% and 56.8% | 12.3% and 15.1% and 18.4% | 4.78% and 2.95% and 3.66% | 3.94% and 2.18% and 3.96% | 0.237 µM and 0.282 µM and 0.385 µM |  |  |  |  |  | 
8 | Cc1cccc(N(C)C(=O)C2C(O)CCN2c2nc(C)cc(C(F)(F)F)c2C#N)c1 (stereo unspecified) |  |  | 100% [middle of 12 runs] | 97.7% [middle of 12 runs] |  | 95.7% [middle of 12 runs] |  | > 10 |  |  | > 10 |  | 
9 | Cn1ncnc1[C@H]1c2n[nH]c(=O)c3cc(F)cc(c23)N[C@@H]1c1ccc(F)cc1 | 86.9% and 122% and 88.4% | 84.2% and 90.4% and 88% |  |  |  |  | > 0.1 µM |  | 103% and 95% and 84.3% | 86.2% and 97.3% and 92.6% |  | 85.9% and 104% and 97.7% | 103% and 90.3% and 99.6%
10 | Nc1ccc(C#CCN(C(=O)Cc2ncc(C(F)(F)F)cc2C(F)(F)F)c2ccc(F)cc2)nn1 | 98.2% [middle of 13 runs] | 95.1% [middle of 13 runs] | 97.8% [middle of 13 runs] | 92.4% [middle of 12 runs] | 90.4% [middle of 13 runs] | 87.2% [middle of 13 runs] |  |  |  |  | > 10 |  | 
11 | Nc1ccn(C2OC(CO)C(O)C2(F)F)c(=O)n1 (stereo unspecified) | 46.2% and 42.9% and 42.2% | 38.7% and 36.8% (2×) | 47.1% and 45.8% and 33.8% | 43% and 35% and 37.6% | 41.3% and 39.6% and 33.5% | 38.2% and 37.7% and 35.1% | < 0.0316 µM |  |  |  |  |  | 
12 | O=C(Nc1ccc(O)c(NS(=O)(=O)c2ccc(F)cc2)c1)c1ccc(-c2ccccc2)cc1 | 105% and 76% and 99.6% | 95.6% and 92.3% and 104% | 105% and 88.3% and 87.2% | 99.5% and 85.9% and 100% | 87.3% and 85.3% and 95.2% | 74.3% (2×) and 75.3% | > 10 µM |  |  |  |  |  | 
13 | O=C(c1cc(Cc2n[nH]c(=O)c3ccccc23)ccc1F)N1CCN(C(=O)C2CC2)CC1 | 91.6% and 93.9% and 74.9% | 78.7% and 90% and 91.5% | 103% and 77.3% and 93.6% | 74.1% and 76.7% and 83% | 86.2% and 79.5% and 87.6% | 81% and 72.1% and 82.1% | > 10 µM |  |  |  |  |  | 
14 | O=c1[nH]cc(F)c(=O)[nH]1 | 119% and 102% and 97% | 107% and 84.6% and 86.3% | 104% and 89.5% and 75.2% | 102% and 96.6% and 104% | 106% and 98.3% and 96.6% | 79.5% and 96.8% and 76.3% | > 10 µM |  |  |  |  |  | 
